Measured values published in patent US9284358B2 (UNIVERSITY OF UTAH RESEARCH FOUNDATION, priority 2006, dated 2016).
Positions of bridges follow the written chain, without caps; N, C: chain ends. Residues, ends and D or L forms follow the SMILES beside them.

Assays:
α9α10 nAChR = molecular target: T1, α9α10 nAChR (Rattus norvegicus, UniProt P43144+Q9JLB5); experiment: cell-based
T1 construct: expressed in transfected cells; host or cells: oocytes

human α9α10 nAChR = molecular target: T2, human α9α10 nAChR (Homo sapiens, UniProt Q9GZZ6+Q9UGM1); experiment: cell-based
T2 construct: expressed in transfected cells; host or cells: oocytes
T2 sequence (Q9UGM1 26-479 limits assumed): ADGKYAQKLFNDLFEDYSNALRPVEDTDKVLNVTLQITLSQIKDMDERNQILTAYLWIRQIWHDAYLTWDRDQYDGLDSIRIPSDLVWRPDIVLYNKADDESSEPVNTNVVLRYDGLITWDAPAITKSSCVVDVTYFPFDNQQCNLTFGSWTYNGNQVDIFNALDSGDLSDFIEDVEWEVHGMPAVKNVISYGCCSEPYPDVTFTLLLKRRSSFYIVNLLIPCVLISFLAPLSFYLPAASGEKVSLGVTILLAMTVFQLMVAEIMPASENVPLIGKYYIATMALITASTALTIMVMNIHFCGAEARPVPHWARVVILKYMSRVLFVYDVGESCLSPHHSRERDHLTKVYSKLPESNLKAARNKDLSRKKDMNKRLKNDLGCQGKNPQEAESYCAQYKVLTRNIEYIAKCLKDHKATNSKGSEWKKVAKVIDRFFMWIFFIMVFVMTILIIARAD
T2 sequence (Q9GZZ6 25-450): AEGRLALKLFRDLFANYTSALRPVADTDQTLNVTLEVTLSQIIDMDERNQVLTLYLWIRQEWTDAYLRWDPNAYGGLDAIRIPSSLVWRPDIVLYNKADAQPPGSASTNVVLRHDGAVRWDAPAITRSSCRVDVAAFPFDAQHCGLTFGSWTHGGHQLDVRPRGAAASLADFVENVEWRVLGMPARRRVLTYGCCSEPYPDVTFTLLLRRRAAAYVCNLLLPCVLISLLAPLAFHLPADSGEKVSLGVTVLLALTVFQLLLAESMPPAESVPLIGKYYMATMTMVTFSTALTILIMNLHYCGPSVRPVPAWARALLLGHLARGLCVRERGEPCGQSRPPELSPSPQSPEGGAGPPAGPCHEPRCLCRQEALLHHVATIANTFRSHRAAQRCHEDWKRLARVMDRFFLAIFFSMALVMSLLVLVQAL

T1 sequence (P43144 26-479 limits assumed): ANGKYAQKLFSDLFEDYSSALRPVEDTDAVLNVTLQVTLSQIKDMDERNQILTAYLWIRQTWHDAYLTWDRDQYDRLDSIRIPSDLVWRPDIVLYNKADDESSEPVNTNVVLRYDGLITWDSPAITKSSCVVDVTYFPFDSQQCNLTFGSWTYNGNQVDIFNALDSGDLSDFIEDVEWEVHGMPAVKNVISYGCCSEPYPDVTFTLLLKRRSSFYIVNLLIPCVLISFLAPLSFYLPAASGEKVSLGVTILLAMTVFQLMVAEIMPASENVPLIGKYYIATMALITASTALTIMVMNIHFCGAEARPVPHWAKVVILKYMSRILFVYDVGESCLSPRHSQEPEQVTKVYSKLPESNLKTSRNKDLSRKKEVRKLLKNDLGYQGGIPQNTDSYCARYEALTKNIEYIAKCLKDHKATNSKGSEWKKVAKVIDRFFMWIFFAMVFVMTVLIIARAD
T1 sequence (Q9JLB5 25-447 limits assumed): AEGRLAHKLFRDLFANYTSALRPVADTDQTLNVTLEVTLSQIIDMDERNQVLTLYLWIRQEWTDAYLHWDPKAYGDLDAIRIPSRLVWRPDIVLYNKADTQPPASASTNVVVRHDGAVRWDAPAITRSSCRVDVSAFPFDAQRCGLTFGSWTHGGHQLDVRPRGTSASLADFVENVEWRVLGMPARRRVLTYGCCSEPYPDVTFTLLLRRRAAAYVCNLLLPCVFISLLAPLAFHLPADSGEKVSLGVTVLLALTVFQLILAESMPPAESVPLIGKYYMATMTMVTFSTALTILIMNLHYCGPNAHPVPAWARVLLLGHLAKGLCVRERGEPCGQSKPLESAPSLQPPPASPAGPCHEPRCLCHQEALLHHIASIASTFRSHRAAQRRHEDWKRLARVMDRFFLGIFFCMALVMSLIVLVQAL

| Structure (SMILES) | IC50 (α9α10 nAChR) | IC50 (human α9α10 nAChR) |
| --- | --- | --- |
| N=C(N)NCCC[C@H](NC(=O)[C@@H]1CSSC[C@@H]2NC(=O)[C@@H](NC(=O)CN)CSSC[C@H](NC(=O)[C@H](CCCNC(=N)N)NC(=O)[C@@H]3CCCN3C(=O)[C@H](CC(=O)O)NC(=O)[C@H](CO)NC2=O)C(=O)N[C@@H](CCCNC(=N)N)C(=O)N[C@@H](Cc2ccccc2)C(=O)N[C@@H](CCCNC(=N)N)C(=O)N1)C(=O)O [SEQ ID NO:17] (H-GCCSDPRCRFRCR-OH; disulfide 2-8, 3-12) | 8 nM | > 1000 nM |
| N=C(N)NCCC[C@H](NC(=O)[C@@H]1CSSC[C@@H]2NC(=O)[C@@H](NC(=O)CN)CSSC[C@H](NC(=O)[C@H](CCCNC(=N)N)NC(=O)[C@@H]3CCCN3C(=O)[C@H](CC(=O)O)NC(=O)[C@H](CO)NC2=O)C(=O)N[C@@H](CCCNC(=N)N)C(=O)N[C@@H](Cc2ccc(O)cc2)C(=O)N[C@@H](Cc2c[nH]cn2)C(=O)N1)C(=O)O [SEQ ID NO:36] (H-GCCSDPRCRYHCR-OH; disulfide 2-8, 3-12) |  | > 1000 nM |
| C[C@@H](O)[C@@H]1NC(=O)[C@@H]2CSSC[C@@H](C(=O)N[C@@H](CCCNC(=N)N)C(=O)O)NC(=O)[C@H](CCCNC(=N)N)NC(=O)[C@H](Cc3ccc(O)cc3)NC(=O)[C@H](CCCNC(=N)N)NC(=O)[C@H](CSSC[C@H](NC(=O)CN)C(=O)N2)NC(=O)[C@H](CCCNC(=N)N)NC(=O)[C@@H]2CCCN2C(=O)[C@H](CC(=O)O)NC1=O [SEQ ID NO:3] |  | 281 nM |
| N=C(N)NCCC[C@@H]1NC(=O)[C@H](Cc2ccc(O)cc2)NC(=O)[C@H](CCCNC(=N)N)NC(=O)[C@@H]2CSSC[C@H](NC(=O)CN)C(=O)N[C@@H](CSSC[C@@H](C(N)=O)NC1=O)C(=O)N[C@@H](CO)C(=O)N[C@@H](CC(=O)O)C(=O)N1CCC[C@H]1C(=O)N[C@@H](CCCNC(=N)N)C(=O)N2 [SEQ ID NO:21] (H-GCCSDPRCRYRC-NH2; disulfide 2-8, 3-12) | 7.8 nM |  |
| N=C(N)NCCC[C@H](NC(=O)[C@@H]1CSSC[C@@H]2NC(=O)[C@@H](NC(=O)CN)CSSC[C@H](NC(=O)[C@H](CCCNC(=N)N)NC(=O)[C@@H]3CCCN3C(=O)[C@H](CCC(=O)O)NC(=O)[C@H](CO)NC2=O)C(=O)N[C@@H](CCCNC(=N)N)C(=O)N[C@@H](Cc2ccc(O)cc2)C(=O)N[C@@H](CCCNC(=N)N)C(=O)N1)C(=O)O [SEQ ID NO:22] (H-GCCSEPRCRYRCR-OH; disulfide 2-8, 3-12) | 6600 nM |  |
| C[C@@H]1NC(=O)[C@@H]2CSSC[C@@H](C(=O)N[C@@H](CCCNC(=N)N)C(=O)O)NC(=O)[C@H](CCCNC(=N)N)NC(=O)[C@H](Cc3ccc(O)cc3)NC(=O)[C@H](CCCNC(=N)N)NC(=O)[C@H](CSSC[C@H](NC(=O)CN)C(=O)N2)NC(=O)[C@H](CCCNC(=N)N)NC(=O)[C@@H]2CCCN2C(=O)[C@H](CC(=O)O)NC1=O [SEQ ID NO:20] (H-GCCADPRCRYRCR-OH; disulfide 2-8, 3-12) | 14.5 nM | > 1000 nM |
| N=C(N)NCCC[C@H](NC(=O)[C@@H]1CSSC[C@@H]2NC(=O)[C@@H](NC(=O)CN)CSSC[C@H](NC(=O)[C@H](CCCNC(=N)N)NC(=O)[C@@H]3CCCN3C(=O)[C@H](CC(=O)O)NC(=O)[C@H](CO)NC2=O)C(=O)N[C@@H](CCCNC(=N)N)C(=O)N[C@@H](Cc2ccc(O)cc2)C(=O)N[C@@H](CCC(N)=O)C(=O)N1)C(=O)O [SEQ ID NO:32] (H-GCCSDPRCRYQCR-OH; disulfide 2-8, 3-12) |  | 202 nM |
| N=C(N)NCCC[C@H](NC(=O)[C@@H]1CSSC[C@@H]2NC(=O)[C@@H](NC(=O)CN)CSSC[C@H](NC(=O)[C@H](CCCNC(=N)N)NC(=O)[C@@H]3CCCN3C(=O)[C@H](CC(=O)O)NC(=O)[C@H](CO)NC2=O)C(=O)N[C@@H](CCCNC(N)=O)C(=O)N[C@@H](Cc2ccc(O)cc2)C(=O)N[C@@H](CCCNC(=N)N)C(=O)N1)C(=O)O [SEQ ID NO:9] | 2.4 nM | 416 nM |
| N=C(N)NCCC[C@H](NC(=O)[C@@H]1CSSC[C@@H]2NC(=O)[C@@H](NC(=O)CN)CSSC[C@H](NC(=O)[C@H](CCCNC(=N)N)NC(=O)[C@@H]3CCCN3C(=O)[C@H](CC(=O)O)NC(=O)[C@H](Cc3ccc(O)cc3)NC2=O)C(=O)N[C@@H](CCCNC(=N)N)C(=O)N[C@@H](Cc2ccc(O)cc2)C(=O)N[C@@H](CCCNC(=N)N)C(=O)N1)C(=O)O [SEQ ID NO:34] (H-GCCYDPRCRYRCR-OH; disulfide 2-8, 3-12) |  | > 1000 nM |
| C[C@@H]1NC(=O)[C@@H]2CSSC[C@H](NC(=O)CN)C(=O)N[C@@H](CSSC[C@@H](C(=O)N[C@@H](CCCNC(=N)N)C(=O)O)NC(=O)[C@H](CCCNC(=N)N)NC(=O)[C@H](Cc3ccc(O)cc3)NC1=O)C(=O)N[C@@H](CO)C(=O)N[C@@H](CC(=O)O)C(=O)N1CCC[C@H]1C(=O)N[C@@H](CCCNC(=N)N)C(=O)N2 [SEQ ID NO:24] (H-GCCSDPRCAYRCR-OH; disulfide 2-8, 3-12) | 13000 nM |  |
| N=C(N)NCCC[C@H](NC(=O)[C@@H]1CSSC[C@@H]2NC(=O)[C@@H](NC(=O)CN)CSSC[C@H](NC(=O)[C@H](CCCNC(=N)N)NC(=O)[C@@H]3CCCN3C(=O)[C@H](CC(=O)O)NC(=O)[C@H](CO)NC2=O)C(=O)N[C@@H](CCCNC(=N)N)C(=O)N[C@@H](Cc2c[nH]c3ccccc23)C(=O)N[C@@H](CCCNC(=N)N)C(=O)N1)C(=O)O [SEQ ID NO:16] (H-GCCSDPRCRWRCR-OH; disulfide 2-8, 3-12) | 11 nM | 268 nM |
| C[C@@H]1NC(=O)[C@@H]2CCCN2C(=O)[C@H](Cc2c[nH]cn2)NC(=O)[C@H](CO)NC(=O)[C@@H]2CSSC[C@@H](C(=O)N[C@@H](CCCNC(=N)N)C(=O)O)NC(=O)[C@H](CCCNC(=N)N)NC(=O)[C@H](Cc3ccc(O)cc3)NC(=O)[C@H](CCCNC(=N)N)NC(=O)[C@H](CSSC[C@H](NC(=O)CN)C(=O)N2)NC1=O [SEQ ID NO:25] (H-GCCSHPACRYRCR-OH; disulfide 2-8, 3-12) | > 10000 nM |  |
| N=C(N)NCCCC[C@@H]1NC(=O)[C@@H]2CSSC[C@H](NC(=O)CN)C(=O)N[C@@H](CSSC[C@@H](C(=O)N[C@@H](CCCNC(=N)N)C(=O)O)NC(=O)[C@H](CCCNC(=N)N)NC(=O)[C@H](Cc3ccc(O)cc3)NC1=O)C(=O)N[C@@H](CO)C(=O)N[C@@H](CC(=O)O)C(=O)N1CCC[C@H]1C(=O)N[C@@H](CCCNC(=N)N)C(=O)N2 [SEQ ID NO:11] | > 1000 nM | > 1000 nM |
| CC(C)[C@@H]1NC(=O)[C@H](CC(=O)O)NC(=O)[C@H](CO)NC(=O)[C@@H]2CSSC[C@@H](C(=O)N[C@@H](CCCNC(=N)N)C(=O)O)NC(=O)[C@H](CCCNC(=N)N)NC(=O)[C@H](Cc3ccc(O)cc3)NC(=O)[C@H](CCCNC(=N)N)NC(=O)[C@H](CSSC[C@H](NC(=O)CN)C(=O)N2)NC(=O)[C@H](CCCNC(=N)N)NC1=O [SEQ ID NO:23] (H-GCCSDVRCRYRCR-OH; disulfide 2-8, 3-12) | 4100 nM |  |
| N=C(N)NCCC[C@H](NC(=O)[C@@H]1CSSC[C@@H]2NC(=O)[C@@H](NC(=O)CN)CSSC[C@H](NC(=O)[C@H](CCCNC(=N)N)NC(=O)[C@@H]3CCCN3C(=O)[C@H](CC(=O)O)NC(=O)[C@H](CO)NC2=O)C(=O)N[C@@H](CCCCN)C(=O)N[C@@H](Cc2ccc(O)cc2)C(=O)N[C@@H](CCCNC(=N)N)C(=O)N1)C(=O)O [SEQ ID NO:14] | > 1000 nM |  |
